Test results reported in patent publication US20090030037A1, “Sustained Release Formulation and Dosing Schedules of Leukotriene Synthesis Inhibitor for Human Therapy” (deCODE Genetics ehf., priority 2005, published 2009).

Assays:
Amyloid A = assay: Study DG-031-201: amyloid A in serum; assay type: in vivo, human; details: difference visit 2 to 5; 500 and 750 mg/day vs placebo
Experimental: Genet. 2004). Apart from FLAP, allele A of the SNP SG12S25 in the LTA4 hydrolase gene, another gene in the LT pathway, is also associated with MI, as described in PCT application no. PCT/US03/32556 and PCT/US04/30582 incorporated by reference.
Patients who met the study eligibility criteria were enrolled and randomized into 3 different dose-level groups: (1) 64 patients on 250 mg/day therapy with DG-031 (250 mg q.d.), vs placebo; (2) 64 patients on 500 mg/day therapy with DG-031 (250 mg b.i.d.) vs placebo; and (3) 63 patients on 750 mg/day therapy with DG-031 (250 mg t.i.d.) vs placebo. […] All patients received 3 tablets per day. Treatment periods, 4 weeks in duration each, were separated by a 2-week washout period. The placebo tablets were identical in shape, color, form and taste to the active tablets except that they contained no active drug ingredients. Treatment with DG-031 or placebo was in addition to the subject's standard care, including all medications and treatment plan as prescribed by the subject's cardiologist prior to enrolment. […]
(§1) All data were analyzed according to a pre-established statistical analysis plan (SAP) and by intention-to-treat (ITT). […] The difference between DG-031 and placebo treatment was the primary outcome, assessed separately for each of the biomarkers. […]

White blood cell count = assay: Study DG-031-201: white blood cell count; assay type: in vivo, human; details: difference visit 2 to 5; 500 and 750 mg/day vs placebo
Experimental: Patients who met the study eligibility criteria were enrolled and randomized into 3 different dose-level groups: (1) 64 patients on 250 mg/day therapy with DG-031 (250 mg q.d.), vs placebo; (2) 64 patients on 500 mg/day therapy with DG-031 (250 mg b.i.d.) vs placebo; and (3) 63 patients on 750 mg/day therapy with DG-031 (250 mg t.i.d.) vs placebo. […] All patients received 3 tablets per day. Treatment periods, 4 weeks in duration each, were separated by a 2-week washout period. The placebo tablets were identical in shape, color, form and taste to the active tablets except that they contained no active drug ingredients. Treatment with DG-031 or placebo was in addition to the subject's standard care, including all medications and treatment plan as prescribed by the subject's cardiologist prior to enrolment. A total of 191 subjects were enrolled, with 172 completing all 8 visits or 8 patients short of the target of 180 patients.
as §1, with “(ITT). Each arm of the study, as well as pooled sets (combining dose levels), was considered for the primary analysis.” for “(ITT).”

SMILES: O=C(O)[C@@H](c1ccc(OCc2ccc3ccccc3n2)cc1)C1CCCC1 [DG-031, (R)-(+)-alpha-cyclopentyl-4-(2-quinolinylmethoxy)-Benzeneacetic acid]
- Carry-over effect, Amyloid A (Amyloid A): −0.14
- Carry-over effect, White blood cell count (White blood cell count): −0.01
